How the values were obtained:
[1] = target: Cyclin-dependent kinase 5 (Homo sapiens) (UniProt Q00535); assay: Inhibition of CDK5 labeling at conserved Lys1 (NRETHEIVALKR) in human PBMC at 1 uM
[2] = target: Dual specificity mitogen-activated protein kinase kinase 7 (Homo sapiens) (UniProt O14733); assay: Inhibition of MAP2K7 conserved Lys2 (DVKPSNILLDER) in human PBMC at 1 uM
[3] = target: T1, Mitogen-activated protein kinase kinase kinase 6 (Homo sapiens) (UniProt O95382); assay: Inhibition of MAP3K6 conserved Lys1 (IAIKEIPER) in human PBMC at 1 uM
T1 sequence (whole entry): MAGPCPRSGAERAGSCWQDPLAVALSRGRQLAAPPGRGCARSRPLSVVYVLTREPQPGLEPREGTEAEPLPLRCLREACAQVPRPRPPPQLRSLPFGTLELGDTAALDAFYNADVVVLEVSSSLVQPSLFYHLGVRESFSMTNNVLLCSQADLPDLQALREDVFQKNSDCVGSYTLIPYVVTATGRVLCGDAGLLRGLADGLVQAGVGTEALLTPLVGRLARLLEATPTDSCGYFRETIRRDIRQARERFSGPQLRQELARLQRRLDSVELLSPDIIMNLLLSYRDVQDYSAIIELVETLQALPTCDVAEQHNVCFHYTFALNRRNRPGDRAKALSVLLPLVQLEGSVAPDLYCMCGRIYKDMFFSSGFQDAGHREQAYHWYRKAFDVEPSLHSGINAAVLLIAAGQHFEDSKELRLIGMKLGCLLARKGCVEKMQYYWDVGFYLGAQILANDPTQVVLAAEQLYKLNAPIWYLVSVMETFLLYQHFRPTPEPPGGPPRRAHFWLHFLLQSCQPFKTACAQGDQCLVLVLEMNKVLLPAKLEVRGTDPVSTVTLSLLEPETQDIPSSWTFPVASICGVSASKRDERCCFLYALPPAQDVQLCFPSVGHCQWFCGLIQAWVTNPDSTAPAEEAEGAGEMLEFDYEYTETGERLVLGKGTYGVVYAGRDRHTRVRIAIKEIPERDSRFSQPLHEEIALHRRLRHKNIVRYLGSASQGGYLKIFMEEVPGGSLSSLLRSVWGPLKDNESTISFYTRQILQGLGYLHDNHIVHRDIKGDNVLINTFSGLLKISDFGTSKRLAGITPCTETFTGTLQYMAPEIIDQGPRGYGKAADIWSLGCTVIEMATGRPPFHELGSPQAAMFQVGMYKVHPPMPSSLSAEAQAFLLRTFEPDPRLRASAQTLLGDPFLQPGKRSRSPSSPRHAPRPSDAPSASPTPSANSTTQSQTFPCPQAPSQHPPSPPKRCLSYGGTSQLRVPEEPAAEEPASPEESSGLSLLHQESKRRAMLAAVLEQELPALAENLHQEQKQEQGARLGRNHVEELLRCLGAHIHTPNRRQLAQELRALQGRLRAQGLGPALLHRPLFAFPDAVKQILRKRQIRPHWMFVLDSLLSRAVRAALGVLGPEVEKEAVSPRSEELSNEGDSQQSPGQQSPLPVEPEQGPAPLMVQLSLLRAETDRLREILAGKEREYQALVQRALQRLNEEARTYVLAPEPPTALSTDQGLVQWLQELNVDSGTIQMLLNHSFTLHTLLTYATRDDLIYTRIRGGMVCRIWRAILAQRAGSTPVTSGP

[4] = target: T2, Serine/threonine-protein kinase 4 (Homo sapiens) (UniProt Q13043); assay: Inhibition of MST1 conserved Lys2 (DIKAGNILLNTEGHAK) in human PBMC at 1 uM
T2 sequence (whole entry): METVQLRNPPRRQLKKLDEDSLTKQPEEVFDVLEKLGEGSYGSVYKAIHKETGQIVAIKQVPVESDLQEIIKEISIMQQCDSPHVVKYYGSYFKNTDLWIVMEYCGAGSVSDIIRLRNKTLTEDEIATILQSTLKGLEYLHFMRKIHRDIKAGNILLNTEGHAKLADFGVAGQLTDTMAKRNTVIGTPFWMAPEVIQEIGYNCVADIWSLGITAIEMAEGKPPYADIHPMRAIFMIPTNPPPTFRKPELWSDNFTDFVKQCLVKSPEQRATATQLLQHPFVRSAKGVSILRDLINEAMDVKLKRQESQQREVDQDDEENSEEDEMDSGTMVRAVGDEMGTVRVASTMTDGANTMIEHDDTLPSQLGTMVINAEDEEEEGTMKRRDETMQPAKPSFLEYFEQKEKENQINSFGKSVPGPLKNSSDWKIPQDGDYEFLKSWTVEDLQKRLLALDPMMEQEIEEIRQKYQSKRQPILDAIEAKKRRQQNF

[5] = target: Ribosomal protein S6 kinase alpha-1 (Homo sapiens) (UniProt Q15418); assay: Inhibition of RSK1 conserved Lys2 (DLKPENILLDEEGHIK) in human PBMC at 1 uM; details: pooled result: one value given for 4 cell lines, strains, targets or settings
[6] = target: Serine/threonine-protein kinase ULK1 (Homo sapiens) (UniProt O75385); assay: Inhibition of ULK1 conserved Lys2 (DLKPQNILLSNPAGR) in human PBMC at 1 uM
[7] = target: Serine/threonine-protein kinase WNK1 (Homo sapiens) (UniProt Q9H4A3); assay: Inhibition of Wnk1 activation Loop (IGDLGLATLKR) in human PBMC at 1 uM
Serine/threonine-protein kinase WNK1 (Homo sapiens), sequence (Q9H4A3 whole entry, looked up): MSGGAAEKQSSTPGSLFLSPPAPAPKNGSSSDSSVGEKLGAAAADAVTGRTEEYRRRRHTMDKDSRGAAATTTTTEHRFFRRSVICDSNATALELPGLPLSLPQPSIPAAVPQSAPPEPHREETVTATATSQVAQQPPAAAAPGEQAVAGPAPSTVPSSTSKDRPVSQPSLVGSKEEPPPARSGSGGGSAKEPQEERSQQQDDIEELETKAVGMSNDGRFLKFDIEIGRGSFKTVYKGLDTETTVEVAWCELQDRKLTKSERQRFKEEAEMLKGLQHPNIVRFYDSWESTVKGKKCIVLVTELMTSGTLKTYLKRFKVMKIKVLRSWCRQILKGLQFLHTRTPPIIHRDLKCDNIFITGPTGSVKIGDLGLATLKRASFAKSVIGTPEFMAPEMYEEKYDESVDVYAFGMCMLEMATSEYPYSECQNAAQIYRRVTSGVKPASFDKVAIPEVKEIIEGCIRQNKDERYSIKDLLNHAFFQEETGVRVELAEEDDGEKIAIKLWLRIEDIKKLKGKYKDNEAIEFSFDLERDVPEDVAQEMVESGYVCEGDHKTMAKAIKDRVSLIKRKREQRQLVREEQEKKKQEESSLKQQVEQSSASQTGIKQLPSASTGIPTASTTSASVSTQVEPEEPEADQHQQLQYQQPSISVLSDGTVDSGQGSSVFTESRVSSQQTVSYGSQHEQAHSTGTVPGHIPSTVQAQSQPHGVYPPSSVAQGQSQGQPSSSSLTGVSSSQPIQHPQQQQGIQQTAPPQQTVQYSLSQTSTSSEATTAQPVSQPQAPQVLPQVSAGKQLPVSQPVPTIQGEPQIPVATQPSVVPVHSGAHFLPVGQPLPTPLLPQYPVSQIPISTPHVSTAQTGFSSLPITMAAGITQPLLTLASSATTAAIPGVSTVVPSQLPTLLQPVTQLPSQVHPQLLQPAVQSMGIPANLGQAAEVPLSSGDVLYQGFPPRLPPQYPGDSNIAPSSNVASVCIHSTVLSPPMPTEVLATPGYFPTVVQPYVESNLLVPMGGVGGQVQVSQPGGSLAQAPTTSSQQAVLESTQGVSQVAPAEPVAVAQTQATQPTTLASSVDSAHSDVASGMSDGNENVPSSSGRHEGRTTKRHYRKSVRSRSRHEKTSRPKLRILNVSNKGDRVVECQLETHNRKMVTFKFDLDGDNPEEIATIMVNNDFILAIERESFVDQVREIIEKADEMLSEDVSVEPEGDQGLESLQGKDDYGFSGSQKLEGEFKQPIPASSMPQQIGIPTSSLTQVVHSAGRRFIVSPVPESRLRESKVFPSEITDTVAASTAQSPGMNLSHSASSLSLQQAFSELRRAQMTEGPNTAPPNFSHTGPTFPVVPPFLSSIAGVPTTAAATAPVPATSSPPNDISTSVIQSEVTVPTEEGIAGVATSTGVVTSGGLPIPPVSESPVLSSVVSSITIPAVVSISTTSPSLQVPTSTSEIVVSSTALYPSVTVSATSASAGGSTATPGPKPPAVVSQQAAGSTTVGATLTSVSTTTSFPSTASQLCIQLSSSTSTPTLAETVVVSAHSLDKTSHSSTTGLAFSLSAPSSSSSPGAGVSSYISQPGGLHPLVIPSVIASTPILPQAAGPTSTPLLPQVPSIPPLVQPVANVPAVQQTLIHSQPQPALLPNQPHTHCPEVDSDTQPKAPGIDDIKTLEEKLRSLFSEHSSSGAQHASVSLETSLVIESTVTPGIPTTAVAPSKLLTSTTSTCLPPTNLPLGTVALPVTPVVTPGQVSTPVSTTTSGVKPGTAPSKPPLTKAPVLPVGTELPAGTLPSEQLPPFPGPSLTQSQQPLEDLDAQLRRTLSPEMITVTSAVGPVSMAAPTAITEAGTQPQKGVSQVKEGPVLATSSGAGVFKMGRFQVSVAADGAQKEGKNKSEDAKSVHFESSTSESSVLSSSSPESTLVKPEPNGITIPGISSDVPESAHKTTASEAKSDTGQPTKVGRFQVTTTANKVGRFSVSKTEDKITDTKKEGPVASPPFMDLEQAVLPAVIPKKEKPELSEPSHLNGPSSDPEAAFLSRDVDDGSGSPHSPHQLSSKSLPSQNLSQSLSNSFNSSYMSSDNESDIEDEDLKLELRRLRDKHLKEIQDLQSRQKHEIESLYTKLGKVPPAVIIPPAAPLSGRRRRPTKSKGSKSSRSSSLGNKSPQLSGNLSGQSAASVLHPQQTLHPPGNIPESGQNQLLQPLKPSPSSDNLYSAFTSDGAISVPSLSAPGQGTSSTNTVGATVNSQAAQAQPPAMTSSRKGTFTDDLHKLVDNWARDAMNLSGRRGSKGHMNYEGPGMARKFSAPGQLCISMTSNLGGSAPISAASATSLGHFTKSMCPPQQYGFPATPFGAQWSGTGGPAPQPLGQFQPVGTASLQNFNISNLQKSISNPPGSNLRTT

[8] = target: Calcium/calmodulin-dependent protein kinase type II subunit alpha (Homo sapiens) (UniProt Q9UQM7); assay: Inhibition of CaMK2a labeling at conserved Lys2 (DLKPENLLLASK) in human PBMC at 0.1 uM
[9] = target: Tyrosine-protein kinase CSK (Homo sapiens) (UniProt P41240); assay: Inhibition of CSK labeling at conserved Lys2 (VSDFGLTKEASSTQDTGKLPVK) in human PBMC at 0.1 uM
[10] = target: Tyrosine-protein kinase Fer (Homo sapiens) (UniProt P16591); assay: Inhibition of FER conserved Lys2 (TSVAVKTCKEDLPQELK) in human PBMC at 0.1 uM
Tyrosine-protein kinase Fer (Homo sapiens), sequence (P16591 whole entry, looked up): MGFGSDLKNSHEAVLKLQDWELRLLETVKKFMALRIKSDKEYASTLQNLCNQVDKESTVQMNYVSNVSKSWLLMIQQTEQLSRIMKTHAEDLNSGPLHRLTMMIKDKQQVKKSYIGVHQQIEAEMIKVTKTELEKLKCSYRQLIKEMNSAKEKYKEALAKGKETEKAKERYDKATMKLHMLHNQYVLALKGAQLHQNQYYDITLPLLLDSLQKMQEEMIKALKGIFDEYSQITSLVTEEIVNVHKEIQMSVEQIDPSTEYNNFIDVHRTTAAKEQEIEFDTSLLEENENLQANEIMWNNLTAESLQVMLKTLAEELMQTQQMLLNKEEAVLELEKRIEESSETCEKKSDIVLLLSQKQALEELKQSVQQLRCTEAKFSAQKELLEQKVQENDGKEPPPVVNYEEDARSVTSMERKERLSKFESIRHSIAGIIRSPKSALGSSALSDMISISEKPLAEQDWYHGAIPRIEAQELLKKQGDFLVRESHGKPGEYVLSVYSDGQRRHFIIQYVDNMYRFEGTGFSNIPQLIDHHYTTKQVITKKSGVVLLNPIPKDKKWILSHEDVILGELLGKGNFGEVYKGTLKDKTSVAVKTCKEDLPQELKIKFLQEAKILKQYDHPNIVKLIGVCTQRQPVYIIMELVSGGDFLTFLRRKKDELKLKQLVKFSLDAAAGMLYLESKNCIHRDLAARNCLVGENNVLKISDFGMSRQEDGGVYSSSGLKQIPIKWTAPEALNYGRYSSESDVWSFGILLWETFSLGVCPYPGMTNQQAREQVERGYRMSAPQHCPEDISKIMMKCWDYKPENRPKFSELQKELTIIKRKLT

[11] = target: Dual specificity mitogen-activated protein kinase kinase 2 (Homo sapiens) (UniProt P36507); assay: Inhibition of MAP2K2 conserved Lys2 (IMHRDVKPSNILVNSR) in human PBMC at 0.1 uM
Dual specificity mitogen-activated protein kinase kinase 2 (Homo sapiens), sequence (P36507 whole entry, the tested form may be a part): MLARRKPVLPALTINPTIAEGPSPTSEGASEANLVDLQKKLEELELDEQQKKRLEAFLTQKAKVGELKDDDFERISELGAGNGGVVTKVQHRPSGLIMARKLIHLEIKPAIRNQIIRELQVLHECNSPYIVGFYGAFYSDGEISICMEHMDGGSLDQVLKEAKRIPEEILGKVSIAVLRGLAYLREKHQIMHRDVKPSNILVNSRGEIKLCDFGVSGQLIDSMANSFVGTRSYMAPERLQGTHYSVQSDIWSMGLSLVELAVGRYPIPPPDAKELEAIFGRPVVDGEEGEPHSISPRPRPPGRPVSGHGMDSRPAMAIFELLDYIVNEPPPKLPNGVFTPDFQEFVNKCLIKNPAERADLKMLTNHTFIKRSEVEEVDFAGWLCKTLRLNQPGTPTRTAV

[12] = target: PAN2-PAN3 deadenylation complex subunit PAN3 (Homo sapiens) (UniProt Q58A45); assay: Inhibition of PAN3 Protein Kinase Domain (VMDPTKILITGK) in human PBMC at 0.1 uM
[13] = target: Ribosomal protein S6 kinase alpha-3 (Homo sapiens) (UniProt P51812); assay: Inhibition of RSK2 domain1 activation Loop (LTDFGLSKESIDHEKK) in human PBMC at 0.1 uM
Ribosomal protein S6 kinase alpha-3 (Homo sapiens), sequence (P51812 whole entry, the tested form may be a part): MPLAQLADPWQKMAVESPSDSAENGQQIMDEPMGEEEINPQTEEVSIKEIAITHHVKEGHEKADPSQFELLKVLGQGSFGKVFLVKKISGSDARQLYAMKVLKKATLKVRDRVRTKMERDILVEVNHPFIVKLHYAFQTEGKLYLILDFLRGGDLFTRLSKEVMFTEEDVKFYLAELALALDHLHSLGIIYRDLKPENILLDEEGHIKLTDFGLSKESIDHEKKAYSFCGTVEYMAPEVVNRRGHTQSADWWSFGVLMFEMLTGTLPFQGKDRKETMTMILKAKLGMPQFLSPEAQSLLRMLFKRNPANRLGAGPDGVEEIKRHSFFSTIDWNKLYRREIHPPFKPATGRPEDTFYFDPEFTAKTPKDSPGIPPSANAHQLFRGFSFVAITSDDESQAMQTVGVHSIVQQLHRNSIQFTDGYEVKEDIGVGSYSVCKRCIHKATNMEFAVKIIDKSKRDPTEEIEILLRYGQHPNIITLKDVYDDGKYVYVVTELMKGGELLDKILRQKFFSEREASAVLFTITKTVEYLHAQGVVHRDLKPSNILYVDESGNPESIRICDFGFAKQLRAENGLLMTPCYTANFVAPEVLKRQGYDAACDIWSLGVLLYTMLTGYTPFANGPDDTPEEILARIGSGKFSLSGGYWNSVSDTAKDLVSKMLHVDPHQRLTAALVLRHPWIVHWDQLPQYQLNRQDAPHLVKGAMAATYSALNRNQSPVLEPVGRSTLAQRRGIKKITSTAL

[14] = target: Ribosomal protein S6 kinase alpha-2 (Homo sapiens) (UniProt Q15349); assay: Inhibition of RSK3 domain1 conserved Lys2 (DLKPENILLDEEGHIKITDFGLSK) in human PBMC at 0.1 uM
Ribosomal protein S6 kinase alpha-2 (Homo sapiens), sequence (Q15349 whole entry, the tested form may be a part): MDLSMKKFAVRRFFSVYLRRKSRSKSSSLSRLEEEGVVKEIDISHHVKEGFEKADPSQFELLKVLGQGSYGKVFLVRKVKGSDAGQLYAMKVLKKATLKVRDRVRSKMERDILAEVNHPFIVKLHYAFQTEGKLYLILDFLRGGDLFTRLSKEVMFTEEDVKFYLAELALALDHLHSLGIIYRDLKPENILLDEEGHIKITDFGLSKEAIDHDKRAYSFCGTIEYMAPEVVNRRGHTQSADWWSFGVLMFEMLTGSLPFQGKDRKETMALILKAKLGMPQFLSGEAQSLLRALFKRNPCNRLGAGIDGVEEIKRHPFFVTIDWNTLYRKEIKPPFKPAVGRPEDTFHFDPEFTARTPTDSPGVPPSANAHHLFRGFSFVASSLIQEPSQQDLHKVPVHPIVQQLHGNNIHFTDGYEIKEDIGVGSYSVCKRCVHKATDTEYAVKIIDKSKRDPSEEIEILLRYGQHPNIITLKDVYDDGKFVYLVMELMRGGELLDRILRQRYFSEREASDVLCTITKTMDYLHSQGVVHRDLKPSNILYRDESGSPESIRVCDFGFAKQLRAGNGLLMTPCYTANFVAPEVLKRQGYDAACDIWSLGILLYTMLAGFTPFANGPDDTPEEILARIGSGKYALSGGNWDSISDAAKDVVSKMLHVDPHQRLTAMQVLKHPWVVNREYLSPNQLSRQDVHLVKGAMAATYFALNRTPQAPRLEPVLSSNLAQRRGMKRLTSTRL

CC(C)n1cc(-c2cc(-c3ccc(CN4CCOCC4)cc3)cnc2N)nn1
inhibition [1]: 1.9% | inhibition [2]: 18.6% | inhibition [3]: -3.3% | inhibition [4]: 0% | inhibition [5]: 10.2% | inhibition [6]: 10.8% | inhibition [7]: 21.9% | inhibition [8]: -7.5% | inhibition [9]: -9.6% | inhibition [10]: -1.2% | inhibition [11]: -5.6% | inhibition [12]: 6.2% | inhibition [13]: 7.7% | inhibition [14]: 13%
